The text below walks through data of US7888357B2, “Anti-inflammatory and protein kinase inhibitor compositions and related methods for downregulation of detrimental cellular responses and inhibition of cell death” (Northwestern University, priority 2001, dated 2011).

The target of one data set is protein kinase C (PKC). Briefly: Reconstituted enzyme assay, PKC. It is filed as biochemical, rat. Here is the method: (§1) [table] […] The rationale for using BV-2 cells in high throughput screening was the paucity of well-characterized human microglial cell lines, and the relevant activation responses and signaling pathways reflect those seen in human and rodent primary microglial cultures. Compounds were tested for their effects on NO accumulation in conditioned media of LPS-stimulated BV-2 cells by measurement of nitrite production by the Griess assay as a read-out for iNOS activity, as described previously. Stock solutions of compounds were prepared in dimethylsulfoxide (DMSO) or in water. When stock solutions were prepared in DMSO, control wells contained the same final concentration of DMSO as the compound-containing wells. […] Solutions of compounds for cell treatments were diluted to a 10× final concentration by dilution of stock solutions in αMEM media. […] Reconstituted enzyme assays were done as described s. The sources of protein kinases were: bovine heart PKA from Promega, rat brain PKC from Calbiochem, rat CaMKII from New England Biolabs, chicken gizzard MLCK prepared as described, and a p38 MAP kinase kit containing recombinant Xenopus p38-MAPK and its human substrate from Upstate Biotechnology. The catalytic domains of these protein kinases retain a high level of amino acid sequence identity across mammalian species, consistent with the lack of documented major differences across species for the in vitro catalytic activity of a given kinase.

Data set [1] has as its target T1, myosin light chain kinase (MLCK) (Gallus gallus, UniProt P11799).
T1 construct: chicken gizzard MLCK prepared as described; from tissue; host or cells: chicken gizzard
Briefly: Reconstituted enzyme assay, MLCK. It is filed as biochemical, chicken. Here is the method:
as §1

Data set [2] deals with death associated protein kinase (DAPK) (Homo sapiens, UniProt P53355). In words: Enzyme assay, DAPK. The class given is biochemical. The note with it: for IC50: Table 6, read-out: Inhibition DAPK. Here is the method:
Therefore, compound MW01-026Z was selected as a starting point for variations on component A (Table 6). […] However, none of the A variations appeared to improve the activity and selectivity profile of CompoundMW01-026Z. (For purposes of illustration, only, component G was maintained throughout as an acyl moiety, while component R2 was varied as shown. All such compositions are available using the synthetic techniques described herein. Enzyme assays were conducted per procedures described elsewhere herein.) A more comprehensive structure activity relationship is summarized in Table 7, below.
With reference to the compositions of Table 3 and the enzyme assay techniques described elsewhere herein, Table 7 provides structural activity relationships observed, in accordance with this invention.

A further data set deals with T2, CaMKII (Rattus norvegicus, UniProt P11275).
T2 construct: purchased New England Biolabs
In words: Reconstituted enzyme assay, CaMKII. The class given is biochemical. The following applies: Table 6; read-out: Inhibition CAMKII. The method, then: as §1

In a further data set the test system is WT mice. Briefly: Endotoxin (LPS)-mediated acute lung injury. It is filed as in vivo, mouse. The following applies: 2.5 mg/kg IP 1 hour prior to LPS 10 mg/kg IP; 24 hours. The method, then:
To confirm the specific role of EC MLCK in the reduced susceptibility of KO mice to endotoxin-mediated lung injury, a representative composition of this invention was used to determine whether pharmacologic inhibition of MLCK would also reduce LPS-induced lung injury. (See, examples 25-26, below.) WT mice were treated with 2.5 mg/kg of a representative MLCK inhibitor (e.g., cpd MW01-022AZ) 1 hour prior to administration of LPS.
Endotoxin-mediated lung injury. LPS (Sigma, St. Louis, Mo.) (10 mg/kg) was administered via intraperitoneal (ip) injection. Animals were allowed to recover for 24 hours prior to determination of lung injury. Control animals received an equivalent volume of sterile saline.
[drawing 161] are shown to be comparatively selective (using assay procedures and data analyses previously described) for inhibition of MLCK and related enzymes such as Rho kinase, and are bioavailable in various other animal models of disease. […] The stimulus in this example was IP injection of 10 mg/kg body weight of the bacterial endotoxin, lipopolysaccharide (LPS). The treatment with MW01-022AZ represents a clinically relevant dose of a kinase inhibitor therapeutic based on prior art with other kinases. Other compositions of this invention, having the structural relationships described and/or illustrated above, can also be employed.
Histologic analysis of lung injury after LPS exposure. […]

For another data set, the system named is Wistar rats at P7. Briefly: Hypoxia-ischemia induced brain damage, hemispheric weight. The class given is in vivo. The text has this:
Induction of hypoxia-ischemia in postnatal day seven (P7) rats. Hypoxic-ischemic injury in P7 rats was induced using the well-characterized method of unilateral carotid ligation followed by hypoxia. This age is approximately equivalent to the 34 week gestation human infant. Male and female Wistar rats at P7 were removed from the mother and anesthetized with halothane (3.5% for induction and 1.5% for maintenance) 50% oxygen-balance nitrogen delivered via facemask. The right common carotid artery was identified and gently separated from the vagus nerve. The vessel was ligated with double 6-0 silk sutures to ensure cessation of blood flow. […]
Animals were sacrificed by halothane overdose at 7 days after hypoxia. […] Differences in weight between the hypoxic-ischemic and control contralateral hemisphere were calculated for each animal using the formula: 100*(C−I)/C=% damage where I represents the weight of the ipsilateral and C the weight of the contralateral hemisphere.
Data Analysis. All data are expressed as mean±SEM. The degree of hypoxic-ischemic brain injury after treatment with drug or saline is expressed as the percentage of reduction in the tissue weight of the hemisphere ipsilateral to carotid ligation. This was calculated as a ratio of the right (ipsilateral, ischemic) to the left (contralateral, non-ischemic) hemispheric weights as described previously in the literature. […]

[3] abbreviates: Table 6, read-out: Inhibition KC.
[4] abbreviates: Table 6, read-out: Inhibition MLCK.

SMILES strings stand for the structures. “Also recorded” adds a separate entry of the source. Read-outs that look alike come from different tables or passages of the source.

T2 sequence (P11275 1-325 limits assumed): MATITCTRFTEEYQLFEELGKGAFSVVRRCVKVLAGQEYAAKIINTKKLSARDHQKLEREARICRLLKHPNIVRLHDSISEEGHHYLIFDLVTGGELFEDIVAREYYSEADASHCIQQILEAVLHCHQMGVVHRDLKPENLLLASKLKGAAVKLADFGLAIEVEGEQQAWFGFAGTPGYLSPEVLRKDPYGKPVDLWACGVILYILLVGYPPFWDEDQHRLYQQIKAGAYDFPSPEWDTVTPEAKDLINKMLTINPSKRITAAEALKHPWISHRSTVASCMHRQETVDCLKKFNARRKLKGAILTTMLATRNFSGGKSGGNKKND
T1 sequence (P11799 935-1906): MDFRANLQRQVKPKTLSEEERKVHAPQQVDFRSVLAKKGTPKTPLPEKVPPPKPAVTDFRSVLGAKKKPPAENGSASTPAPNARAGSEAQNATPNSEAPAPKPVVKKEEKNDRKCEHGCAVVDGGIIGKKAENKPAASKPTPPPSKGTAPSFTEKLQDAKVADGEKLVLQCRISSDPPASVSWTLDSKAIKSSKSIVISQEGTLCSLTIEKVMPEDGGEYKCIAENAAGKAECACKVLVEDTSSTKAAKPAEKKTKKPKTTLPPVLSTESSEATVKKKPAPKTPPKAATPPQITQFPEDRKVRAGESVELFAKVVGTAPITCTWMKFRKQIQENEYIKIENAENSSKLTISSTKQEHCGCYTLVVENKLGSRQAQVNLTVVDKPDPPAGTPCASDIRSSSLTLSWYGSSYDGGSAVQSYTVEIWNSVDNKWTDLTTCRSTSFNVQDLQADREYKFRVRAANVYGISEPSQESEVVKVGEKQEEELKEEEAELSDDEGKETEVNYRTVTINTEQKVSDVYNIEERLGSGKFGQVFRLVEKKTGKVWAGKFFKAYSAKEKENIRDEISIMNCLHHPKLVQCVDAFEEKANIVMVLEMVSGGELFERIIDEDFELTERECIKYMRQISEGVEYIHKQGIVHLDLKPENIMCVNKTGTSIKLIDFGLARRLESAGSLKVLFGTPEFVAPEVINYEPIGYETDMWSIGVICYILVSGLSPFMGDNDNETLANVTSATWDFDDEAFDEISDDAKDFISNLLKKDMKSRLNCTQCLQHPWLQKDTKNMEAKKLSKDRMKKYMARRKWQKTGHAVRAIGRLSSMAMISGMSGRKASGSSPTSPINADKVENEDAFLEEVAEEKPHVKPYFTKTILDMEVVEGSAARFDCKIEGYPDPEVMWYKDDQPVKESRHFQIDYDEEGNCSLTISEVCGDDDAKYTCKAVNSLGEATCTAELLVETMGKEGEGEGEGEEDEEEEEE
Sequence of death associated protein kinase (DAPK) (P53355 whole entry, species assumed): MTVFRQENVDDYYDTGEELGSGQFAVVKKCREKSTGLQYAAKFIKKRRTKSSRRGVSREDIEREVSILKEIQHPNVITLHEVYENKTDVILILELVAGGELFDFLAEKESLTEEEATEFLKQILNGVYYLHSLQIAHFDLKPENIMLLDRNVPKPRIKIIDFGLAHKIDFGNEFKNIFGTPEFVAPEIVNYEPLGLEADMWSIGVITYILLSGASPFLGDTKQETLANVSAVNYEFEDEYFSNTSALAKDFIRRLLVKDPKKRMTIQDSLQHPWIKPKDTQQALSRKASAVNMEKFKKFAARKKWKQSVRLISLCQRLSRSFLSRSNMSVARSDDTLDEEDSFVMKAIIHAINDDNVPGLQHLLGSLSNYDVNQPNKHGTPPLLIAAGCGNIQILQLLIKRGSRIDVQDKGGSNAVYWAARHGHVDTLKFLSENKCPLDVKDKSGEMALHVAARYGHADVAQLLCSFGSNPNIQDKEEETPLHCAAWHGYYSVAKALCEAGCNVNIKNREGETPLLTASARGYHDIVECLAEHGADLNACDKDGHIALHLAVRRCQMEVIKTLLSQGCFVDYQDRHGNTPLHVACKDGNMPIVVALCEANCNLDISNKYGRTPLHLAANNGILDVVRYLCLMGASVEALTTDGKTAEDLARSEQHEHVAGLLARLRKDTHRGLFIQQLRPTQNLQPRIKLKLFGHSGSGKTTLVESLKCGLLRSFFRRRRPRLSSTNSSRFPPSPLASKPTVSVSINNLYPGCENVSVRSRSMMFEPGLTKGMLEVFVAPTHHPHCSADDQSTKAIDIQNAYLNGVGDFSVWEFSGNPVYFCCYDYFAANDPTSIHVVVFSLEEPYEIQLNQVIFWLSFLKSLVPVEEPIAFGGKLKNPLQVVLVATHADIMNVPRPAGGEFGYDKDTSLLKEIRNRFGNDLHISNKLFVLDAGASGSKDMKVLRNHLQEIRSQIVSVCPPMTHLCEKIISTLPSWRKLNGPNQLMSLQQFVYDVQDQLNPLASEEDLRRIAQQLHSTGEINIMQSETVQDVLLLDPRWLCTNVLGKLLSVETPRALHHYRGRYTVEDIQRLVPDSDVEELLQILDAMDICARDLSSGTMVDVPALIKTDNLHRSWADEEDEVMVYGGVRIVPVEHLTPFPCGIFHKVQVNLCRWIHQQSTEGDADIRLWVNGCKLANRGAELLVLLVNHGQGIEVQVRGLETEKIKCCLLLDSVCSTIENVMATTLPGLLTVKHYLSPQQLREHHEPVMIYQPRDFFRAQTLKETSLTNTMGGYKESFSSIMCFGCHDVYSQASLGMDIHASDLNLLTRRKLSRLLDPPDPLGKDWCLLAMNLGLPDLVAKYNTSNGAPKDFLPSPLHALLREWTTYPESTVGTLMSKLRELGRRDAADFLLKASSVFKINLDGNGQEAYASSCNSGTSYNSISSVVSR

Consider `COc1ccc(S(=O)(=O)N(CCO)c2ccccc2CN(C)C/C=C/c2ccc(Cl)cc2)cc1` [Compound 5, KN93, reference compound], for which the IC50 is > 100 µM at protein kinase C (PKC) (γ-[32P]-ATP, synthetic peptide substrate, read-out: IC50 PKC) and 9.8 ± 0.7 µM in data set [1] (γ-[32P]-ATP, synthetic peptide substrate, mean ± SEM, read-out: IC50 MLCK).

Regarding `N=c1ccc(-c2ccccc2)nn1CCCCCCCCCCC(=O)Nc1ccc(-c2ccccc2)nn1` [MW01-125AZ], the IC50 on protein kinase C (PKC) (setting [3]) was 20 to 50 µM; in data set [2] it was 20 to 50 µM; on CaMKII, > 100 µM; in data set [1] (setting [4]), > 100 µM.

In the case of `N=c1ccc(Cl)nn1CCCCCCCCCCC(=O)Nc1ccc(-c2ccccc2)nn1` [MW01-022AZ], in the data set on WT mice, the “LPS-induced lung injury (histology)” value is listed as “no evidence of lung injury; also recorded: close to normal”.

`N=c1cc2c(nn1CCCCCCCCCCC(=O)Nc1ccc(-c3ccccc3)nn1)-c1ccccc1CC2` [MW01-026Z]: the “percent weight loss in the ischemic hemisphere compared to the contralateral hemisphere” value in the data set with Wistar rats at P7 (5 mg/kg IP 1 hour after carotid ligation, 7 day recovery to P14, mean±SEM, n=7) worked out at 8.2±5.5%. Also, the mortality entry in the data set on Wistar rats at P7 (5 mg/kg IP, versus vehicle group) is “no differences in mortality”. In addition, the IC50 at protein kinase C (PKC) (setting [3]) was > 100 µM; in data set [2], < 20 µM; on CaMKII, > 100 µM; in data set [1] (setting [4]), 20 to 50 µM. For the same compound, the “DAPK inhibitory activity” value in data set [2] (comparison among compounds) is “most potent DAPK inhibitor”.

Turning to `N=c1cc2c(nn1CCCCCCCCCCC(=O)Nc1cc3c(nn1)-c1ccccc1CC3)-c1ccccc1CC2` [MW01-055V], the IC50 on protein kinase C (PKC) (setting [3]) is 50 to 100 µM; in data set [2] it was 50 to 100 µM; in data set [1] (setting [4]), < 20 µM.

Regarding `Cc1ccc(=N)n(CCCCCCCCCCC(=O)Nc2ccc(-c3ccccc3)nn2)n1` [MW01-031Z], the IC50 was > 100 µM in data set [2], > 100 µM at CaMKII and < 20 µM in data set [1] (setting [4]).
